Measured values from patent US12370161B2, “Composition for treating atopy or pruritus comprising N-acetyl or N-acyl amino acid” (STEMDR INC., priority 2017, dated 2025).
“Also recorded” adds a separate entry of the source.

Columns and labels:
[1] = tested on: atopic dermatitis-induced Balb/c mouse; assay: SCORAD clinical skin score, DNFB-induced atopic dermatitis in Balb/c mouse; type: in vivo; design: key to Mouse 1 Sum / Mean (of Sum, SCORAD) / Mouse 2 Sum / Mouse 3 Sum: sum of symptom grades, each 0 (none) to 3 (severe); settings: for skin-soothing and atopic dermatitis-treating effect (SCORAD, Table 1, FIG. 2A): Balb/c atopic dermatitis model, 0.1% topical, P<0.05 versus DNFB group; for apparent degree of dermatitis (back skin images, FIG. 2B): Balb/c, treated for 7 days, day 29; for Mouse 1 Erythema / Mouse 1 Abrasion / Mouse 1 Dryness / Mouse 1 Edema / Mouse 1 Eschar / Mouse 1 Lichenification / Mouse 1 Sum / Mouse 2 Abrasion / Mouse 2 Dryness / Mouse 2 Edema / Mouse 2 Erythema / Mouse 2 Eschar / Mouse 2 Lichenification / Mouse 2 Sum / Mouse 3 Abrasion / Mouse 3 Dryness / Mouse 3 Edema / Mouse 3 Erythema / Mouse 3 Eschar / Mouse 3 Lichenification / Mouse 3 Sum / Mean (of Sum, SCORAD): DNFB Balb/c; for Mouse 1 Erythema: 0.1% in PBS, 200 μL on back skin daily day 22-28, grade 0-3 (0 no symptom, 1 mild, 2 moderate, 3 severe); for Mouse 1 Abrasion / Mouse 1 Dryness / Mouse 1 Edema / Mouse 1 Eschar / Mouse 1 Lichenification / Mouse 1 Sum / Mouse 2 Abrasion / Mouse 2 Dryness / Mouse 2 Edema / Mouse 2 Erythema / Mouse 2 Eschar / Mouse 2 Lichenification / Mouse 2 Sum / Mouse 3 Abrasion / Mouse 3 Dryness / Mouse 3 Edema / Mouse 3 Erythema / Mouse 3 Eschar / Mouse 3 Lichenification / Mouse 3 Sum / Mean (of Sum, SCORAD): 0.1% topical day 22-28; for Mouse 1 Abrasion / Mouse 1 Dryness / Mouse 1 Edema / Mouse 1 Eschar / Mouse 1 Lichenification / Mouse 2 Abrasion / Mouse 2 Dryness / Mouse 2 Edema / Mouse 2 Erythema / Mouse 2 Eschar / Mouse 2 Lichenification / Mouse 3 Abrasion / Mouse 3 Dryness / Mouse 3 Edema / Mouse 3 Erythema / Mouse 3 Eschar / Mouse 3 Lichenification: grade 0-3; for Mouse 1 Sum / Mouse 2 Sum / Mouse 3 Sum: overall dermatitis score, sum of individual scores; for Mean (of Sum, SCORAD): mean of 3 mice
Procedure: In order to induce atopy-like dermatitis in Balb/c mice, DNFB sensitization was induced by applying 100 μL of 0.35% 2,4-dinitrofluorobenzene (DNFB) (Sigma, USA) in acetone/olive oil (3:1) on the shaved back skin of the mice. Then, dermatitis was induced by applying 100 μL of 0.25% DNFB on days 6, 9, 12, 15, 18 21, 24 and 27 on the shaved back skin. Control mice were treated with a vehicle of the same volume (FIG. 1A).
(§1) After dissolving an N-acetyl or N-acylamino acid in phosphate-buffered saline to 0.1%, 200 μL of the solution was applied on the back skin of the mice every day, from day 22 until day 28 for the Balb/c atopic dermatitis model, and from day 15 until day 21 for the Nc/Nga atopic dermatitis model. When the N-acetyl or N-acylamino acid was treated together with DNFB, they were treated with 12-hour intervals in order to avoid direct reaction between the DNFB and the N-acetyl or N-acylamino acid. A non-treated group and a 2,4-dinitrofluorobenzene (DNFB) group were treated with phosphate-buffered saline of the same volume (FIGS. 1A-1B). As the N-acetylamino acid, products purchased from Sigma-Aldrich (USA), MP scientific (USA), TCI (Tokyo Chemical Industry, Japan), Santacruz (USA), etc. were used without purification.
(§2) The degree of skin soothing and the severity of atopic dermatitis were evaluated macroscopically according to the previously established SCORAD (SCORing Atopic Dermatitis) method (Oranje et al., 2007). The degree of symptoms such as edema, erythema, eschar, dryness, abrasion, lichenification, etc. was graded from 0 to 3 (0, no symptom; 1, mild; 2, moderate; 3, severe). The overall dermatitis score was determined from the sum of all individual scores (Table 1). The assessment was performed by an investigator who was blind to the grouping of the mice.

IgE = assay: Serum IgE level by ELISA, Balb/c; type: in vivo, mouse; settings: atopy-induced Balb/c mice
Procedure: After treatment with the test substance, the mice were sacrificed and blood was taken from the heart. After isolating serum from the blood, IgE level was measured. Specifically, after attaching antibodies diluted in a buffer solution onto a 96-well plate and incubating overnight at 4° C., experiment was conducted using an IgE ELISA kit (BD Biosciences, San Diego, CA) according to the provided manual. The quantity of the IgE protein was determined by measuring absorbance at 450 nm using a microplate reader.

IL4 = IL4 mRNA in skin tissue by quantitative real-time PCR, Balb/c; type: in vivo, mouse; settings: atopy-induced Balb/c mice, normalized to β-actin
Procedure: (§3) After isolating total RNA from the atopy-induced skin tissue using 500 μL of Trizol (Life Technologies, USA) according to the manufacturer's protocol and synthesizing cDNA using the Superscript III reverse transcriptase (Life Technologies, USA), real-time PCR was conducted by reacting with the primers of IL4 and interferon γ to be analyzed. The real-time PCR was conducted on a StepOne Plus PCR cycler (Applied Biosystems) using SYBR Green (Applied Biosystems, Foster City, CA). The mRNA expression data were analyzed by the ΔΔCT method and were normalized to β-actin for gene detection. The primers necessary for the real-time PCR were purchased from Qiagen (USA). […] IL4 is known to induce TH2 response and interferon γ is known to induce TH1 response.

interferon γ = assay: Interferon γ mRNA in skin tissue by quantitative real-time PCR, Balb/c; type: in vivo, mouse; settings: atopy-induced Balb/c mice, normalized to β-actin
Procedure: as §3

[2] = tested on: pruritus caused by atopic contact dermatitis; assay: Pruritus inhibition test, pruritus induced with DNFB; type: in vivo, mouse; settings: 0.1% in physiological saline applied once onto right ear; pruritus measured for 1 hour
Procedure: In order to investigate whether L-form, LID-form and D-form N-acetylalanine, N-acetylarginine, N-acetylthreonine and N-acetyltryptophan inhibit pruritus caused by atopic contact dermatitis, 20 μL of 0.1% 2,4-dinitrofluorobenzene (DNFB) solution and 0.1% N-acetylamino acid dissolved in physiological saline were applied once onto the right ear 10 minutes after the final treatment (day 27) with 2,4-dinitrofluorobenzene (DNFB) (Physiological saline was applied to a negative control group), and then pruritus was measured for 1 hour. FIG. 7 compares the pruritus-relieving effect of L-form N-acetylalanine, N-acetylthreonine, N-acetylarginine and N-acetyltryptophan with D/L-form and D-form N-acetylalanine and N-acetyltryptophan at 0.1% after the induction of pruritus with DNFB.

[3] = tested on: atopic dermatitis-induced Nc/Nga mouse; assay: SCORAD clinical skin score, DNFB-induced atopic dermatitis in Nc/Nga mouse; type: in vivo; design: key to Mouse 1 Erythema / Mouse 2 Eschar / Mouse 2 Dryness / Mouse 2 Abrasion / Mouse 1 Edema / Mouse 1 Eschar / Mouse 1 Dryness / Mouse 1 Abrasion / Mouse 2 Erythema / Mouse 2 Edema / Mouse 3 Erythema / Mouse 3 Edema / Mouse 3 Eschar / Mouse 3 Dryness / Mouse 3 Abrasion: 0 = no symptom, 1 = mild, 2 = moderate, 3 = severe; key to Mouse 1 Sum / Mean (of Sum, SCORAD) / Mouse 3 Sum: sum of individual symptom scores, each graded 0-3; settings: for dermatitis-treating effect of L-, L/D- and D-form (FIG. 6): Nc/Nga atopic dermatitis model, 0.1%
Procedure: In order to establish a model more similar to an atopy model than that of the Balb/c mice, atopy was induced in Nc/Nga mouse mice. Specifically, after inducing DNFB sensitization by applying 100 μL of 0.35% 2,4-dinitrofluorobenzene (DNFB) in acetone/olive oil (3:1) on the shaved back skin, dermatitis was induced by applying 100 μL of 0.15% DNFB for 4-20 days, every other day. Control mice were treated with a vehicle of the same volume (FIG. 1B).
as §1, §2
Skin-soothing effect and the severity of dermatitis were evaluated for the acyl derivatives of tryptophan synthesized in Example 9, the acyl derivative of alanine synthesized in Example 10 and N-palmitoylalanine (purchased from Santacruz (USA)) according to the method of Example 4 (Table 2)

[4] = Mouse 1, DNFB Nc/Nga, 0.1% topical day 15-21, graded per Example 4
[5] = Mouse 2, DNFB Nc/Nga, 0.1% topical day 15-21, graded per Example 4
[6] = Mouse 3, DNFB Nc/Nga, 0.1% topical day 15-21, graded per Example 4

CC(=O)N[C@H](C(=O)O)[C@@H](C)O [N-acetyl-L-threonine]
skin-soothing and atopic dermatitis-treating effect (SCORAD, Table 1, FIG. 2A) [1]: significant skin-soothing and atopic dermatitis-treating effects; also recorded: significant atopic dermatitis-treating effect
apparent degree of dermatitis (back skin images, FIG. 2B) [1]: decreased remarkably
Mouse 1 Erythema [1]: 1
Mouse 1 Abrasion [1]: 1
Mouse 1 Dryness [1]: 2
Mouse 1 Edema [1]: 1
Mouse 1 Eschar [1]: 1
Mouse 1 Lichenification [1]: 1
Mouse 1 Sum [1]: 7
Mouse 2 Abrasion [1]: 1
Mouse 2 Dryness [1]: 0
Mouse 2 Edema [1]: 1
Mouse 2 Erythema [1]: 1
Mouse 2 Eschar [1]: 1
Mouse 2 Lichenification [1]: 1
Mouse 2 Sum [1]: 5
Mouse 3 Abrasion [1]: 0
Mouse 3 Dryness [1]: 1
Mouse 3 Edema [1]: 1
Mouse 3 Erythema [1]: 1
Mouse 3 Eschar [1]: 2
Mouse 3 Lichenification [1]: 1
Mouse 3 Sum [1]: 6
Mean (of Sum, SCORAD) [1]: 6
serum IgE level (FIG. 4A) (IgE): significant decrease
level of IL4 in the skin tissue (FIG. 5A) (IL4): significantly decreased
level of interferon γ in the skin tissue (FIG. 5A) (interferon γ): significantly decreased
pruritus-relieving effect (FIG. 7) [2]: significantly inhibited pruritus

CC(=O)N[C@@H](Cc1c[nH]c2ccccc12)C(=O)O [D/L-form N-acetyltryptophan, N-acetyltryptophan, reference compound]
dermatitis-treating effect of L-, L/D- and D-form (FIG. 6) ([3]; listed as LID-form N-acetyltryptophan): no effect
pruritus-relieving effect (FIG. 7) [2]: little effect

CC(=O)N[C@@H](CS)C(=O)O [N-acetyl-L-cysteine, reference compound]
skin-soothing and atopic dermatitis-treating effect (SCORAD, Table 1, FIG. 2A) [1]: significant skin-soothing and atopic dermatitis-treating effects; also recorded: significant atopic dermatitis-treating effect
apparent degree of dermatitis (back skin images, FIG. 2B) [1]: decreased remarkably
Mouse 1 Erythema [1]: 2
Mouse 1 Abrasion [1]: 2
Mouse 1 Dryness [1]: 2
Mouse 1 Edema [1]: 2
Mouse 1 Eschar [1]: 2
Mouse 1 Lichenification [1]: 3
Mouse 1 Sum [1]: 13
Mouse 2 Abrasion [1]: 2
Mouse 2 Dryness [1]: 3
Mouse 2 Edema [1]: 1
Mouse 2 Erythema [1]: 2
Mouse 2 Eschar [1]: 2
Mouse 2 Lichenification [1]: 3
Mouse 2 Sum [1]: 13
Mouse 3 Abrasion [1]: 2
Mouse 3 Dryness [1]: 2
Mouse 3 Edema [1]: 2
Mouse 3 Erythema [1]: 1
Mouse 3 Eschar [1]: 2
Mouse 3 Lichenification [1]: 2
Mouse 3 Sum [1]: 11
Mean (of Sum, SCORAD) [1]: 12.33
serum IgE level (FIG. 4A) (IgE): significant decrease
level of IL4 in the skin tissue (FIG. 5A) (IL4): significantly decreased
level of interferon γ in the skin tissue (FIG. 5A) (interferon γ): significantly decreased

CC(=O)N[C@@H](CCCNC(=N)N)C(=O)O [N-acetyl-L-arginine]
skin-soothing and atopic dermatitis-treating effect (SCORAD, Table 1, FIG. 2A) [1]: significant skin-soothing and atopic dermatitis-treating effects; also recorded: significant atopic dermatitis-treating effect
apparent degree of dermatitis (back skin images, FIG. 2B) [1]: decreased remarkably
Mouse 1 Erythema [1]: 1
Mouse 1 Abrasion [1]: 1
Mouse 1 Dryness [1]: 1
Mouse 1 Edema [1]: 1
Mouse 1 Eschar [1]: 1
Mouse 1 Lichenification [1]: 1
Mouse 1 Sum [1]: 6
Mouse 2 Abrasion [1]: 1
Mouse 2 Dryness [1]: 1
Mouse 2 Edema [1]: 1
Mouse 2 Erythema [1]: 1
Mouse 2 Eschar [1]: 1
Mouse 2 Lichenification [1]: 1
Mouse 2 Sum [1]: 6
Mouse 3 Abrasion [1]: 0
Mouse 3 Dryness [1]: 1
Mouse 3 Edema [1]: 1
Mouse 3 Erythema [1]: 1
Mouse 3 Eschar [1]: 1
Mouse 3 Lichenification [1]: 1
Mouse 3 Sum [1]: 5
Mean (of Sum, SCORAD) [1]: 5.67
serum IgE level (FIG. 4A) (IgE): significant decrease
level of IL4 in the skin tissue (FIG. 5A) (IL4): significantly decreased
level of interferon γ in the skin tissue (FIG. 5A) (interferon γ): significantly decreased
pruritus-relieving effect (FIG. 7) [2]: significantly inhibited pruritus

CC(=O)N[C@@H](C)C(=O)O [D/L-form N-acetylalanine, N-acetylalanine, reference compound]
dermatitis-treating effect of L-, L/D- and D-form (FIG. 6) ([3]; listed as LID-form N-acetylalanine): no effect
pruritus-relieving effect (FIG. 7) [2]: little effect

CCCCCCCCCCCCCCCC(=O)N[C@@H](Cc1c[nH]c2ccccc12)C(=O)O [N-palmitoyl-L-tryptophan]
Mouse 1 Erythema ([3]; Mouse 1, DNFB Nc/Nga (FIG. 8), 0.1% in PBS, 200 μL on back skin daily day 15-21, graded per Example 4): 1
Mouse 1 Abrasion [3, 4]: 1
Mouse 1 Dryness [3, 4]: 1
Mouse 1 Edema [3, 4]: 2
Mouse 1 Eschar [3, 4]: 1
Mouse 1 Lichenification [3, 4]: 2
Mouse 1 Sum ([3]; Mouse 1, DNFB Nc/Nga, 0.1% topical day 15-21, sum of individual scores): 6
Mouse 2 Abrasion [3, 5]: 2
Mouse 2 Dryness [3, 5]: 2
Mouse 2 Edema [3, 5]: 1
Mouse 2 Erythema [3, 5]: 2
Mouse 2 Eschar [3, 5]: 2
Mouse 2 Lichenification [3, 5]: 1
Mouse 2 Sum ([3]; Mouse 2, DNFB Nc/Nga, 0.1% topical day 15-21, sum of individual scores): 10
Mouse 3 Abrasion [3, 6]: 1
Mouse 3 Dryness [3, 6]: 2
Mouse 3 Edema [3, 6]: 2
Mouse 3 Erythema [3, 6]: 2
Mouse 3 Eschar [3, 6]: 1
Mouse 3 Lichenification [3, 6]: 2
Mouse 3 Sum ([3]; Mouse 3, DNFB Nc/Nga, 0.1% topical day 15-21, sum of individual scores): 10
Mean (of Sum, SCORAD) ([3]; mean of 3 mice, DNFB Nc/Nga, 0.1% topical day 15-21): 8.7
